Measurements from PubChem BioAssay AID330 (DTP/NCI, 2004).
“And” between values parts separate entries of the source, which are not always exact repeats. Identical values can stand only once. Toxic doses and inconclusive results are not listed. How the source made its calls: active means survival T/C of 150% or more; inactive means T/C below 125% in these data.

Test system: P388 leukemia ip, CD2F1 mice, survival T/C
Test: NCI In Vivo Anticancer Drug Screen. Data for tumor model P388 Leukemia (intraperitoneal) in CD2F1 (CDF1) mice
Conditions: endpoint: median survival time, higher = longer survival
Procedure, shortened: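 Mice carrying the transplanted tumor received test compound or vehicle. Survival was recorded in each group, and the value is the treated-group measurement divided by that of the vehicle-treated control group.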

[1] = dose: 25.0 mg/kg/injection, schedule: Q01DX005 (ip), vehicle: saline with Tween-80
[2] = dose: 50.0 mg/kg/injection, schedule: Q01DX005 (ip), vehicle: saline with Tween-80
[3] = dose: 100.0 mg/kg/injection, schedule: Q01DX005 (ip), vehicle: saline with Tween-80
[4] = dose: 200.0 mg/kg/injection, schedule: Q01DX005 (ip), vehicle: saline with Tween-80
[5] = dose: 50.0 mg/kg/injection, schedule: Q01DX005 (ip), vehicle: Klucel (hydroxypropylcellulose) (HPC)
[6] = dose: 100.0 mg/kg/injection, schedule: Q01DX005 (ip), vehicle: Klucel (hydroxypropylcellulose) (HPC)
[7] = dose: 50.0 mg/kg/injection, schedule: Q01DX009 (ip), vehicle: Klucel (hydroxypropylcellulose) (HPC)
[8] = dose: 100.0 mg/kg/injection, schedule: Q01DX009 (ip), vehicle: Klucel (hydroxypropylcellulose) (HPC)
[9] = dose: 100.0 mg/kg/injection, schedule: Q01DX001 (ip), vehicle: saline
[10] = dose: 200.0 mg/kg/injection, schedule: Q01DX001 (ip), vehicle: saline
[11] = dose: 50.0 mg/kg/injection, schedule: Q01DX009 (ip), vehicle: saline
[12] = dose: 100.0 mg/kg/injection, schedule: Q01DX009 (ip), vehicle: saline
[13] = dose: 100.0 mg/kg/injection, schedule: Q01DX001 (ip), vehicle: Klucel (hydroxypropylcellulose) (HPC)
[14] = dose: 200.0 mg/kg/injection, schedule: Q01DX001 (ip), vehicle: Klucel (hydroxypropylcellulose) (HPC)
[15] = dose: 400.0 mg/kg/injection, schedule: Q01DX001 (ip), vehicle: Klucel (hydroxypropylcellulose) (HPC)

Measured: T/C

C=C1[C@H]2C[C@H]2[C@]2(C)C=C3OC(=O)C(C)=C3C[C@@H]12
inactive: dose: 5.5 mg/kg/injection, schedule: Q01DX005 (ip), vehicle: Klucel (hydroxypropylcellulose) (HPC) 94 % of control | dose: 11.0 mg/kg/injection, schedule: Q01DX005 (ip), vehicle: Klucel (hydroxypropylcellulose) (HPC) 98 % of control | dose: 22.0 mg/kg/injection, schedule: Q01DX005 (ip), vehicle: Klucel (hydroxypropylcellulose) (HPC) 100 % of control | dose: 44.0 mg/kg/injection, schedule: Q01DX005 (ip), vehicle: Klucel (hydroxypropylcellulose) (HPC) 94 % of control | dose: 80.0 mg/kg/injection, schedule: Q01DX005 (ip), vehicle: Klucel (hydroxypropylcellulose) (HPC) 91 % of control

CC12CCC(C=C1N1CCOCC1)C(C)(C)O2 (stereo not drawn)
inactive: [1] 97 % of control | dose: 25.0 mg/kg/injection, schedule: Q01DX005 (ip), vehicle: saline 100 % of control | [2] 103 % of control | dose: 50.0 mg/kg/injection, schedule: Q01DX005 (ip), vehicle: saline 102 % of control | [3] 94 % of control | dose: 100.0 mg/kg/injection, schedule: Q01DX005 (ip), vehicle: saline 100 % of control | [4] 94 % of control | dose: 200.0 mg/kg/injection, schedule: Q01DX005 (ip), vehicle: saline 99 % of control

COc1ccc2c(C)cc(N/N=C/c3ccccn3)nc2c1
inactive: dose: 25.0 mg/kg/injection, schedule: Q01DX005 (ip), vehicle: Klucel (hydroxypropylcellulose) (HPC) 102 % of control and 112 % of control | [5] 104 % of control and 118 % of control and 93 % of control | [6] 104 % of control and 112 % of control

CCN(CC)Cc1c(C)[nH]c2c(ccc3cc4ccccc4cc32)c1=O
inactive: dose: 100.0 mg/kg/injection, schedule: Q04DX003 (ip), vehicle: Klucel (hydroxypropylcellulose) (HPC) 94 % of control | dose: 200.0 mg/kg/injection, schedule: Q04DX003 (ip), vehicle: Klucel (hydroxypropylcellulose) (HPC) 97 % of control | dose: 400.0 mg/kg/injection, schedule: Q04DX003 (ip), vehicle: Klucel (hydroxypropylcellulose) (HPC) 96 % of control

N/C(=N\OC(=O)Nc1cccc(Cl)c1)C(Cl)(Cl)Cl
inactive: dose: 25.0 mg/kg/injection, schedule: Q01DX009 (ip), vehicle: Klucel (hydroxypropylcellulose) (HPC) 98 % of control | [7] 113 % of control | [8] 112 % of control

c1ccc2c(Cc3csc4ccccc34)csc2c1
inactive: dose: 50.0 mg/kg/injection, schedule: Q01DX005 (ip), vehicle: distilled water + Tween-80 + alcohol 106 % of control | dose: 100.0 mg/kg/injection, schedule: Q01DX005 (ip), vehicle: distilled water + Tween-80 + alcohol 115 % of control | dose: 200.0 mg/kg/injection, schedule: Q01DX005 (ip), vehicle: distilled water + Tween-80 + alcohol 115 % of control

O=C(CBr)c1cc2ccccc2[nH]1
inactive: [9] 110 % of control | [10] 106 % of control | dose: 400.0 mg/kg/injection, schedule: Q01DX001 (ip), vehicle: saline 106 % of control

O=NN(CCCl)C(=O)OCCCSSCCCOC(=O)N(CCCl)N=O
inactive: dose: 50.0 mg/kg/injection, schedule: Q01DX009 (ip), vehicle: water 120 % of control

N#Cc1ccccc1Cl
inactive: dose: 50.0 mg/kg/injection, schedule: Q01DX009 (ip), vehicle: saline with Tween-80 100 % of control | dose: 100.0 mg/kg/injection, schedule: Q01DX009 (ip), vehicle: saline with Tween-80 101 % of control | dose: 200.0 mg/kg/injection, schedule: Q01DX009 (ip), vehicle: saline with Tween-80 98 % of control

COC(=O)CC1(O)C=C(C)C(=O)c2ccccc21 (stereo not drawn)
inactive: [1] 100 % of control | [2] 101 % of control | [3] 100 % of control | [4] 100 % of control | dose: 400.0 mg/kg/injection, schedule: Q01DX005 (ip), vehicle: saline with Tween-80 101 % of control

CC(C)C1CCC(C)C1C(N)=O (stereo not drawn)
inactive: dose: 100.0 mg/kg/injection, schedule: Q04DX002 (ip), vehicle: saline with Tween-80 103 % of control | dose: 200.0 mg/kg/injection, schedule: Q04DX002 (ip), vehicle: saline with Tween-80 99 % of control | dose: 400.0 mg/kg/injection, schedule: Q04DX002 (ip), vehicle: saline with Tween-80 99 % of control

CCCN(CCC)CC(C)O (stereo not drawn)
inactive: dose: 25.0 mg/kg/injection, schedule: Q01DX009 (ip), vehicle: saline 95 % of control | [11] 100 % of control | [12] 95 % of control

CC1(C)CC(=NNC(N)=S)CC(C)(C)N1
inactive: [11] 94 % of control | [12] 97 % of control | dose: 200.0 mg/kg/injection, schedule: Q01DX009 (ip), vehicle: saline 99 % of control

OC(C1CCCCC1)C1CCCCC1Cl (stereo not drawn)
inactive: [2] 102 % of control | [3] 102 % of control | [4] 102 % of control

CN(Cc1nc(-c2ccccc2)no1)c1nc(-c2ccccc2)no1
inactive: [13] 97 % of control | [14] 109 % of control | [15] 95 % of control

CCN(CC)C(=S)C(C)=C(Sc1ccccc1)Sc1ccccc1
inactive: [5] 100 % of control | [6] 99 % of control | dose: 200.0 mg/kg/injection, schedule: Q01DX005 (ip), vehicle: Klucel (hydroxypropylcellulose) (HPC) 99 % of control

C[Si](C)(C)C1=CC[C@H]2C(=O)N(c3ccccc3)C(=O)[C@H]2C1=O
inactive: [2] 107 % of control | [3] 118 % of control | [4] 111 % of control

CC(C)CCC[C@@H](C)[C@H]1CC[C@H]2[C@@H]3CC=C4C[C@@H](OC(=O)Cc5ccc(N(CCCl)CCCl)cc5)CC[C@]4(C)[C@H]3CC[C@]12C
inactive: dose: 50.0 mg/kg/injection, schedule: Q01DX010 (ip), vehicle: Klucel (hydroxypropylcellulose) (HPC) 101 % of control | dose: 100.0 mg/kg/injection, schedule: Q01DX010 (ip), vehicle: Klucel (hydroxypropylcellulose) (HPC) 99 % of control | dose: 200.0 mg/kg/injection, schedule: Q01DX010 (ip), vehicle: Klucel (hydroxypropylcellulose) (HPC) 101 % of control | dose: 400.0 mg/kg/injection, schedule: Q01DX010 (ip), vehicle: Klucel (hydroxypropylcellulose) (HPC) 105 % of control | dose: 800.0 mg/kg/injection, schedule: Q01DX010 (ip), vehicle: Klucel (hydroxypropylcellulose) (HPC) 92 % of control

NNC(=S)Nc1ccccc1
inactive: dose: 1.25 mg/kg/injection, schedule: Q01DX009 (ip), vehicle: saline with Tween-80 104 % of control | dose: 2.5 mg/kg/injection, schedule: Q01DX009 (ip), vehicle: saline with Tween-80 100 % of control | dose: 5.0 mg/kg/injection, schedule: Q01DX009 (ip), vehicle: saline with Tween-80 95 % of control

O=C(c1ccccc1)C(C(=O)c1ccccc1)S(=O)(=O)c1ccccc1
inactive: [2] 93 % of control | [3] 93 % of control | [4] 91 % of control

Nc1[nH]c(=S)[nH]c(=O)c1N=Nc1ccccc1
inactive: dose: 100.0 mg/kg/injection, schedule: Q01DX001 (ip), vehicle: saline with Tween-80 98 % of control | dose: 200.0 mg/kg/injection, schedule: Q01DX001 (ip), vehicle: saline with Tween-80 102 % of control | dose: 400.0 mg/kg/injection, schedule: Q01DX001 (ip), vehicle: saline with Tween-80 117 % of control

CCOC(=O)C(=CNc1cc(C)c2[nH]c3ccc(Cl)cc3c2c1C)C(=O)OCC
inactive: dose: 60.0 mg/kg/injection, schedule: Q01DX005 (ip), vehicle: saline with Tween-80 92 % of control | dose: 120.0 mg/kg/injection, schedule: Q01DX005 (ip), vehicle: saline with Tween-80 93 % of control | dose: 240.0 mg/kg/injection, schedule: Q01DX005 (ip), vehicle: saline with Tween-80 86 % of control and 94 % of control

COC(=O)C1=C(C(=O)OC)C2C=CC1C1C(OC(C)=O)C(OC(C)=O)C21 (stereo not drawn)
inactive: [7] 100 % of control | [8] 100 % of control | dose: 200.0 mg/kg/injection, schedule: Q01DX009 (ip), vehicle: Klucel (hydroxypropylcellulose) (HPC) 107 % of control

CC(C)NC1CC2CCCCC2CC1c1ccccc1 (stereo not drawn)
inactive: [13] 93 % of control | [14] 93 % of control | [15] 88 % of control

CCOC(=C\C=C\C1=[N+](C)c2ccccc2C1(C)C)/C=C/C=C1/N(C)c2ccccc2C1(C)C
inactive: dose: 1.56 mg/kg/injection, schedule: Q01DX009 (ip), vehicle: saline with Tween-80 117 % of control | dose: 3.13 mg/kg/injection, schedule: Q01DX009 (ip), vehicle: saline with Tween-80 114 % of control

CCCC1(CCC)NC(=O)N(CC(=O)OCC)C1=O
inactive: [9] 105 % of control | [10] 110 % of control

O=C(NN(CCN(NC(=O)c1ccccc1)C(=O)c1ccccc1)C(=O)c1ccccc1)c1ccccc1
inactive: [2] 99 % of control | [3] 92 % of control | [4] 96 % of control
